Source: patent US8785499B2 (priority 2009, dated 2014)

molecular target: baNadD (Bacillus anthracis, UniProt C3L5T6); experiment: biochemical; format: biochemical
Sequence (C3L5T6 whole entry, looked up): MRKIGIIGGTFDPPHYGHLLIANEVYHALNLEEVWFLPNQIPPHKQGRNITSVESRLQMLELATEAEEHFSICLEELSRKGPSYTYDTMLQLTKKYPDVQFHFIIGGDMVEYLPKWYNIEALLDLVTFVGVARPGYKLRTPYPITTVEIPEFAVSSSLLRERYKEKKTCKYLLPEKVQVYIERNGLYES

Compound | […]. anthracis
NS(=O)(=O)c1ccc(NC(=S)NCCc2c[nH]c3ccccc23)cc1 [compound 206] | 25%
O=C(O)CCCC(=O)Nc1nc2ccccc2s1 [compound 207] | 7%
CSc1cccc(NS(=O)(=O)c2ccc(F)cc2)c1 [compound 208] | 0%
O=C(O)c1cc(NC(=O)c2ccc(Cl)cc2Cl)cc(C(=O)O)c1 [compound 209] | 0%
Cc1ccc(S(=O)(=O)/N=C(/NCC(=O)O)c2ccccc2)cc1 [compound 211] | 42%
CCC(NS(=O)(=O)c1ccc(OC)cc1)C(=O)O (centres unmarked) [compound 212] | 32%
NS(=O)(=O)c1ccc(CCNC(=O)c2ccc([NH2+][O-])cc2)cc1 [compound 213] | 54%
NS(=O)(=O)c1ccc(/N=C/c2ccc(Br)cc2)cc1 [compound 214] | 0%
O=C(O)c1ccc(-n2ncc(Cl)c(Cl)c2=O)cc1 [compound 217] | 0%
NS(=O)(=O)c1ccc(N/C=C2\C(=O)Oc3ccccc3C2=O)cc1 [compound 218] | 0%
CCOC(=O)c1ccc(N/C=C2\C(=O)Oc3ccccc3C2=O)cc1 [compound 220] | 0%
O=C(NCc1cccs1)C1CC(c2cccc(Br)c2)=NO1 (centres unmarked) [compound 222] | 0%
CC(C)COC1CS(=O)(=O)CC1OCC(C)C (centres unmarked) [compound 223] | 20%
CSc1ccccc1NC(=S)Nc1cccnc1 [compound 224] | 0%
Brc1ccc2ncnc(NCc3cccnc3)c2c1 [compound 225] | 55%
O=C(O)C1CCCN(S(=O)(=O)c2cccc([N+](=O)[O-])c2)C1 (centres unmarked) [compound 227] | 0%
O=C(CSc1ncnc2ccccc12)Nc1ccc2nsnc2c1 [compound 228] | 28%
O=C(CSc1nc2ccccc2o1)Nc1nncs1 [compound 229] | 0%
CC(=O)Nc1ccc(/N=C/c2ccc([N+](=O)[O-])cc2)cc1 [compound 230] | 0%

Compound | […]. anthracis
Cc1ccc(SCc2cc(=O)n3ncnc3[nH]2)cc1 [compound 231] | 0%
Nc1nc(-c2cccc(Br)c2)cs1 [compound 232] | 12%
N#CCc1ccc(NC(=O)/C=C/c2ccc([N+](=O)[O-])o2)cc1 [compound 233] | 8%
O=C(O)c1ccc(-c2ccccc2F)o1 [compound 234] | 0%
O=C(O)c1ccc2[nH]c(CCc3nc4cc(C(=O)O)ccc4[nH]3)nc2c1 [compound 235] | 0%
O=C(CSc1ccccc1)Nc1cc(C(=O)O)cc(C(=O)O)c1 [compound 236] | 0%
Nc1nn(S(=O)(=O)c2ccccc2)cc1-c1ccc(Cl)cc1 [compound 237] | 0%
O=C(O)CCC(=O)NCc1ccc(C(=O)O)cc1 [compound 238] | 14%
O=C(O)CCC(=O)Nc1ccc(-c2nnc(-c3ccco3)o2)cc1 [compound 239] | 11%
CC(=O)c1cccc(NS(=O)(=O)c2cccc(C(=O)O)c2)c1 [compound 240] | 0%
O=[N+]([O-])c1cccc(S(=O)(=O)Nn2cnnc2)c1 [compound 241] | 59%
CC(c1ccccc1)c1nnc(N)s1 (centres unmarked) [compound 242] | 18%
Cc1ccc(NS(=O)(=O)c2coc(C(N)=O)c2)cc1F [compound 243] | 0%
CC(=O)NC(=S)Nc1ccc(Cl)c(Cl)c1 [compound 244] | 0%
O=C(NCc1ccc(C(=O)O)cc1)Nc1ccc(Br)cc1Cl [compound 245] | 0%
O=C(O)C(Cc1ccccc1)NS(=O)(=O)c1ccc2c(c1)OCCO2 (centres unmarked) [compound 246] | 0%
O=C(O)CCC(=O)OC/C=C/c1ccccc1 [compound 247] | 18%
O=C(CSc1nc2ccccc2[nH]1)Nc1cccc(C(=O)O)c1 [compound 248] | 4%

molecular target: ecNadD (Escherichia coli (strain K12), UniProt P0A752); experiment: biochemical; format: biochemical

Compound | […]. coli
NS(=O)(=O)c1ccc(NC(=S)NCCc2c[nH]c3ccccc23)cc1 [compound 206] | 0%
O=C(O)CCCC(=O)Nc1nc2ccccc2s1 [compound 207] | 0%
CSc1cccc(NS(=O)(=O)c2ccc(F)cc2)c1 [compound 208] | 0%
O=C(O)c1cc(NC(=O)c2ccc(Cl)cc2Cl)cc(C(=O)O)c1 [compound 209] | 0%
Cc1ccc(S(=O)(=O)/N=C(/NCC(=O)O)c2ccccc2)cc1 [compound 211] | 0%
CCC(NS(=O)(=O)c1ccc(OC)cc1)C(=O)O (centres unmarked) [compound 212] | 0%
NS(=O)(=O)c1ccc(CCNC(=O)c2ccc([NH2+][O-])cc2)cc1 [compound 213] | 0%
NS(=O)(=O)c1ccc(/N=C/c2ccc(Br)cc2)cc1 [compound 214] | 0%
O=C(O)c1ccc(-n2ncc(Cl)c(Cl)c2=O)cc1 [compound 217] | 0%
NS(=O)(=O)c1ccc(N/C=C2\C(=O)Oc3ccccc3C2=O)cc1 [compound 218] | 0%
CCOC(=O)c1ccc(N/C=C2\C(=O)Oc3ccccc3C2=O)cc1 [compound 220] | 0%
O=C(NCc1cccs1)C1CC(c2cccc(Br)c2)=NO1 (centres unmarked) [compound 222] | 0%
CC(C)COC1CS(=O)(=O)CC1OCC(C)C (centres unmarked) [compound 223] | 0%
CSc1ccccc1NC(=S)Nc1cccnc1 [compound 224] | 0%
Brc1ccc2ncnc(NCc3cccnc3)c2c1 [compound 225] | 0%
O=C(O)C1CCCN(S(=O)(=O)c2cccc([N+](=O)[O-])c2)C1 (centres unmarked) [compound 227] | 0%
O=C(CSc1ncnc2ccccc12)Nc1ccc2nsnc2c1 [compound 228] | 0%
O=C(CSc1nc2ccccc2o1)Nc1nncs1 [compound 229] | 0%
CC(=O)Nc1ccc(/N=C/c2ccc([N+](=O)[O-])cc2)cc1 [compound 230] | 0%

Compound | […]. coli
Cc1ccc(SCc2cc(=O)n3ncnc3[nH]2)cc1 [compound 231] | 0%
Nc1nc(-c2cccc(Br)c2)cs1 [compound 232] | 0%
N#CCc1ccc(NC(=O)/C=C/c2ccc([N+](=O)[O-])o2)cc1 [compound 233] | 0%
O=C(O)c1ccc(-c2ccccc2F)o1 [compound 234] | 0%
O=C(O)c1ccc2[nH]c(CCc3nc4cc(C(=O)O)ccc4[nH]3)nc2c1 [compound 235] | 0%
O=C(CSc1ccccc1)Nc1cc(C(=O)O)cc(C(=O)O)c1 [compound 236] | 0%
Nc1nn(S(=O)(=O)c2ccccc2)cc1-c1ccc(Cl)cc1 [compound 237] | 0%
O=C(O)CCC(=O)NCc1ccc(C(=O)O)cc1 [compound 238] | 0%
O=C(O)CCC(=O)Nc1ccc(-c2nnc(-c3ccco3)o2)cc1 [compound 239] | 0%
CC(=O)c1cccc(NS(=O)(=O)c2cccc(C(=O)O)c2)c1 [compound 240] | 0%
O=[N+]([O-])c1cccc(S(=O)(=O)Nn2cnnc2)c1 [compound 241] | 0%
CC(c1ccccc1)c1nnc(N)s1 (centres unmarked) [compound 242] | 0%
Cc1ccc(NS(=O)(=O)c2coc(C(N)=O)c2)cc1F [compound 243] | 0%
CC(=O)NC(=S)Nc1ccc(Cl)c(Cl)c1 [compound 244] | 0%
O=C(NCc1ccc(C(=O)O)cc1)Nc1ccc(Br)cc1Cl [compound 245] | 0%
O=C(O)C(Cc1ccccc1)NS(=O)(=O)c1ccc2c(c1)OCCO2 (centres unmarked) [compound 246] | 0%
O=C(O)CCC(=O)OC/C=C/c1ccccc1 [compound 247] | 0%
O=C(CSc1nc2ccccc2[nH]1)Nc1cccc(C(=O)O)c1 [compound 248] | 0%
